# Laboratory results: patent US20040010036A1, “N,N, -Substituted s-Aryl-Isothioureas, N,N,N, -Substituted s-Aryl-Isothioureas and combinatorial libraries thereof” (priority 2002, published 2004)
# Tested on: Streptococcus pyogenes (ATCC# 97-03 14289)
# Experiment: Anti-microbial screen (percent inhibition of growth, OD 570 nm)
# Assay type: cell-based
# Details: Spy4H: Streptococcus pyogenes, read at 4 hours, OD 570 nm; Conc 0.1776 mg ml
# Protocol: Streptococcus pyogenes (ATCC# 97-03 14289) was grown in Todd Hewitt Broth (THB) (Difco Laboratories #0492-17-6) overnight until reaching an optical density of (OD=0.636@570 nm) by reading 0.1 ml in a 96 well microtiter plate in a Molecular Devices Thermomax. This preparation was kept frozen as stocks in 30% v/v glycerol in 1.5 ml aliquots at […] until use. Prior to experiments, 6 ml aliquots were thawed and diluted into 50 ml 2×THB. 60 ul of this dilution was added to 92 wells of microtiter plate. To three wells THB (200 ul) was added to serve as a blank and a sterility control. Test compounds in DMSO and appropriate concentrations of DMSO were added to Growth/Solvent Controls at 0 time. Plates were read at 0 time at 570 nm in the Molecular Devices plate reader to obtain compounds correction factors for insoluble or colored compounds. Plates were read again at 4 hours.
# Percent inhibition is calculated with the following formula:
# Color correct=O.D. 0 hr - Blank 0 hr)-(Solvent Control Ohr - Blank 0 hr) [formula]
row,SMILES,inhibition of growth at 177.6 µg/mL
1,Cc1ccc(CN(Cc2ccc(O)cc2)/C(=N\c2ccc(C(F)(F)F)cc2)Sc2ccc(C)cc2C)cc1 [Cmpd 7],63.7%
2,Cc1ccc(CN(Cc2ccc(O)cc2)/C(=N/c2ccc(Cl)c(Cl)c2)Sc2ccc(C)cc2C)cc1 [Cmpd 8],57.5%
3,Cc1ccc(CN(Cc2ccc(O)cc2)/C(=N/c2cc(Cl)cc(Cl)c2)Sc2ccc(C)cc2C)cc1 [Cmpd 13],65.7%
4,Cc1ccc(CN(Cc2ccc(O)cc2)/C(=N\c2ccc(Cl)c([N+](=O)[O-])c2)Sc2ccc(C)cc2C)cc1 [Cmpd 23],61.3%
5,Cc1ccc(CN(Cc2ccc(O)cc2)/C(=N/c2ccccc2[N+](=O)[O-])Sc2ccc(C)cc2C)cc1 [Cmpd 26],58.1%
6,Cc1ccc(CN(Cc2ccc(O)cc2)/C(=N\c2ccc(Cl)c(C(F)(F)F)c2)Sc2ccc(C)cc2C)cc1 [Cmpd 33],57.8%
7,COc1cccc(S/C(=N\Cc2ccc(F)cc2)N(Cc2ccc(O)cc2)Cc2ccc(Cl)c(Cl)c2)c1 [Cmpd 44],67.5%
8,COc1cccc(S/C(=N\c2cccc(C(F)(F)F)c2)N(Cc2ccc(O)cc2)Cc2ccc(Cl)c(Cl)c2)c1 [Cmpd 46],60.6%
9,COc1cccc(S/C(=N\c2ccc(C(F)(F)F)cc2)N(Cc2ccc(O)cc2)Cc2ccc(Cl)c(Cl)c2)c1 [Cmpd 47],85.8%
10,COc1cccc(S/C(=N\c2cc(Cl)cc(Cl)c2)N(Cc2ccc(O)cc2)Cc2ccc(Cl)c(Cl)c2)c1 [Cmpd 53],70.2%
11,COc1cccc(S/C(=N\c2ccc(Cl)c([N+](=O)[O-])c2)N(Cc2ccc(O)cc2)Cc2ccc(Cl)c(Cl)c2)c1 [Cmpd 63],66.8%
12,COc1cccc(S/C(=N/c2ccc(Cl)c(C(F)(F)F)c2)N(Cc2ccc(O)cc2)Cc2ccc(Cl)c(Cl)c2)c1 [Cmpd 73],85.8%
13,COCCN(Cc1cccc(O)c1)/C(=N\c1cccc(F)c1)Sc1ccc(C)cc1C [Cmpd 83],70.9%
14,COCCN(Cc1cccc(O)c1)/C(=N\c1ccc(F)cc1F)Sc1ccc(C)cc1C [Cmpd 85],82.3%
15,COCCN(Cc1cccc(O)c1)/C(=N\c1ccc(C)cc1)Sc1ccc(C)cc1C [Cmpd 90],81.3%
16,COCCN(Cc1cccc(O)c1)/C(=N\c1cccc(Cl)c1)Sc1ccc(C)cc1C [Cmpd 92],59.8%
17,CCc1cccc(/N=C(/Sc2ccc(C)cc2C)N(CCOC)Cc2cccc(O)c2)c1 [Cmpd 98],69.9%
18,COCCN(Cc1cccc(O)c1)/C(=N\c1ccc(Cl)c([N+](=O)[O-])c1)Sc1ccc(C)cc1C [Cmpd 103],58.9%
19,COCCN(Cc1cccc(O)c1)/C(=N\c1ccc(Cl)c(C(F)(F)F)c1)Sc1ccc(C)cc1C [Cmpd 113],59.8%
20,COc1cccc(S/C(=N/c2ccc(C(F)(F)F)cc2)N(Cc2ccc(C)cc2)Cc2ccc(O)cc2)c1 [Cmpd 127],61.5%
21,COc1cccc(S/C(=N\c2cc(Cl)cc(Cl)c2)N(Cc2ccc(C)cc2)Cc2ccc(O)cc2)c1 [Cmpd 133],94.3%

row,SMILES,inhibition of growth at 177.6 µg/mL
1,COc1cccc(S/C(=N/c2ccc(Cl)c([N+](=O)[O-])c2)N(Cc2ccc(C)cc2)Cc2ccc(O)cc2)c1 [Cmpd 143],93.6%
2,COc1cccc(S/C(=N/c2ccc(Cl)c(C(F)(F)F)c2)N(Cc2ccc(C)cc2)Cc2ccc(O)cc2)c1 [Cmpd 153],70.6%
3,Cc1ccc(S/C(=N\c2ccc(C(F)(F)F)cc2)N(Cc2ccc(O)cc2)Cc2cccc(Cl)c2)cc1 [Cmpd 167],71%
4,Cc1ccc(S/C(=N\c2cc(Cl)cc(Cl)c2)N(Cc2ccc(O)cc2)Cc2cccc(Cl)c2)cc1 [Cmpd 173],70.7%
5,Cc1ccc(S/C(=N\c2ccc(Cl)c([N+](=O)[O-])c2)N(Cc2ccc(O)cc2)Cc2cccc(Cl)c2)cc1 [Cmpd 183],64.8%
6,COc1ccc(C)cc1/N=C(\Sc1ccc(C)cc1)N(Cc1ccc(O)cc1)Cc1cccc(Cl)c1 [Cmpd 189],61.8%
7,Cc1ccc(CN(Cc2cccc(O)c2)/C(=N/Cc2ccc(F)cc2)Sc2ccc(C)cc2C)cc1 [Cmpd 204],69.1%
8,Cc1ccc(CN(Cc2cccc(O)c2)/C(=N\c2ccc(C(F)(F)F)cc2)Sc2ccc(C)cc2C)cc1 [Cmpd 207],95.9%
9,Cc1ccc(CN(Cc2cccc(O)c2)/C(=N/c2ccccc2[N+](=O)[O-])Sc2ccc(C)cc2C)cc1 [Cmpd 226],74.4%
10,COc1ccc(C)cc1/N=C(\Sc1ccc(C)cc1C)N(Cc1ccc(C)cc1)Cc1cccc(O)c1 [Cmpd 229],65.8%
11,Cc1ccc(CN(Cc2cccc(O)c2)/C(=N\c2ccc(Cl)c(C(F)(F)F)c2)Sc2ccc(C)cc2C)cc1 [Cmpd 233],60.5%
12,Cc1ccc(S/C(=N/c2ccc(C(F)(F)F)cc2)N(Cc2ccc(O)cc2)CC(C)C)cc1 [Cmpd 247],60.3%
13,Cc1ccc(S/C(=N/c2cc(Cl)cc(Cl)c2)N(Cc2ccc(O)cc2)CC(C)C)cc1 [Cmpd 253],66.5%
14,Cc1ccc(S/C(=N/c2ccc(Cl)c(C(F)(F)F)c2)N(Cc2ccc(O)cc2)CC(C)C)cc1 [Cmpd 273],64.6%
15,Cc1ccc(S/C(=N/c2ccc(F)c(F)c2)N(Cc2ccc(O)cc2)CC(C)C)cc1 [Cmpd 276],62.1%
16,Cc1ccc(S/C(=N\Cc2ccc(F)cc2)N(CCc2ccc(Cl)cc2)Cc2cccc(O)c2)c(C)c1 [Cmpd 284],64%
17,Cc1ccc(S/C(=N\c2ccc(C(F)(F)F)cc2)N(CCc2ccc(Cl)cc2)Cc2cccc(O)c2)c(C)c1 [Cmpd 287],97.7%
18,COc1cccc(CN(Cc2cccc(O)c2)/C(=N/c2ccc(Cl)c(Cl)c2)Sc2cccc(OC)c2)c1 [Cmpd 328],98.9%
19,COc1cccc(CN(Cc2cccc(O)c2)/C(=N/c2cc(Cl)cc(Cl)c2)Sc2cccc(OC)c2)c1 [Cmpd 333],67.2%
20,COc1cccc(CN(Cc2cccc(O)c2)/C(=N\c2ccc(Cl)c(C(F)(F)F)c2)Sc2cccc(OC)c2)c1 [Cmpd 353],59.1%

# Same assay, conditions: Streptococcus pyogenes; Assay Spy4H; Conc 0.1776 mg ml; plates read at 570 nm at 0 time and at 4 hours
row,SMILES,inhibition of growth at 177.6 µg/mL
1,COc1ccc(C)cc1/N=C(\Sc1ccc(C)cc1C)N(Cc1ccc(C)cc1)Cc1ccc(O)cc1 [Cmpd 29],53.7%
2,Cc1ccc(CN(Cc2ccc(O)cc2)/C(=N/c2ccc(F)c(F)c2)Sc2ccc(C)cc2C)cc1 [Cmpd 36],56.8%
3,COc1cccc(S/C(=N\c2cccc(Cl)c2)N(Cc2ccc(O)cc2)Cc2ccc(Cl)c(Cl)c2)c1 [Cmpd 52],52.6%
4,COc1cccc(S/C(=N/c2ccc(OC(F)(F)F)cc2)N(Cc2ccc(O)cc2)Cc2ccc(Cl)c(Cl)c2)c1 [Cmpd 75],52.3%
5,COCCN(Cc1cccc(O)c1)/C(=N\c1ccc(F)c(Cl)c1)Sc1ccc(C)cc1C [Cmpd 94],54%
6,COCCN(Cc1cccc(O)c1)/C(=N\c1cc(C)ccc1OC)Sc1ccc(C)cc1C [Cmpd 109],56.3%
7,COc1cccc(S/C(=N\Cc2ccc(F)cc2)N(Cc2ccc(C)cc2)Cc2ccc(O)cc2)c1 [Cmpd 124],55.6%
8,Cc1ccc(S/C(=N\c2ccc(Cl)c(Cl)c2)N(Cc2ccc(O)cc2)Cc2cccc(Cl)c2)cc1 [Cmpd 168],49.5%
9,Cc1ccc(S/C(=N\c2ccccc2[N+](=O)[O-])N(Cc2ccc(O)cc2)Cc2cccc(Cl)c2)cc1 [Cmpd 186],56.5%
10,Cc1ccc(CN(Cc2cccc(O)c2)/C(=N/Cc2cccc(C)c2)Sc2ccc(C)cc2C)cc1 [Cmpd 202],51.9%
11,Cc1ccc(CN(Cc2cccc(O)c2)/C(=N/c2cc(Cl)cc(Cl)c2)Sc2ccc(C)cc2C)cc1 [Cmpd 213],57.1%
12,Cc1ccc(S/C(=N/Cc2ccccc2)N(Cc2ccc(O)cc2)CC(C)C)cc1 [Cmpd 241],49.8%
13,Cc1ccc(S/C(=N/Cc2ccc(F)cc2)N(Cc2ccc(O)cc2)CC(C)C)cc1 [Cmpd 244],51.6%
14,Cc1ccc(S/C(=N/c2ccc(Cl)c(Cl)c2)N(Cc2ccc(O)cc2)CC(C)C)cc1 [Cmpd 248],55%
15,Cc1ccc(S/C(=N/c2ccc(F)c(Cl)c2)N(Cc2ccc(O)cc2)CC(C)C)cc1 [Cmpd 254],49.2%
16,Cc1ccc(S/C(=N/c2ccc(Cl)c([N+](=O)[O-])c2)N(Cc2ccc(O)cc2)CC(C)C)cc1 [Cmpd 263],53.8%
17,Cc1cccc(C/N=C(\Sc2ccc(C)cc2C)N(CCc2ccc(Cl)cc2)Cc2cccc(O)c2)c1 [Cmpd 282],49.8%
18,Cc1ccc(S/C(=N\c2ccc(F)c(Cl)c2)N(CCc2ccc(Cl)cc2)Cc2cccc(O)c2)c(C)c1 [Cmpd 294],56.6%
19,Cc1ccc(S/C(=N/c2ccc(Cl)c(C(F)(F)F)c2)N(CCc2ccc(Cl)cc2)Cc2cccc(O)c2)c(C)c1 [Cmpd 313],50.4%
20,COc1cccc(CN(Cc2cccc(O)c2)/C(=N/c2ccc(C(F)(F)F)cc2)Sc2cccc(OC)c2)c1 [Cmpd 327],56.7%
21,COc1cccc(CN(Cc2cccc(O)c2)/C(=N/c2ccc(F)c(Cl)c2)Sc2cccc(OC)c2)c1 [Cmpd 334],50.6%
22,COc1cccc(CN(Cc2cccc(O)c2)/C(=N/c2ccc(Cl)c([N+](=O)[O-])c2)Sc2cccc(OC)c2)c1 [Cmpd 343],52.7%
